Values quoted from earlier work, collected in patent US8623415B2, “Method for producing biologically ingestible microparticles, biologically ingestible microparticles, and dispersion and pharmaceutical composition containing the same” (M. Technique Co., Ltd., priority 2007, dated 2014).
Like-named read-outs stand apart in the source and are kept apart here.

Key:
[1] = dissolved in an aqueous solution of pH 6 or higher

Structure (SMILES) | biological availability (BA) (commercial product (average particle diameter 10 μm) administered to a dog as a suspension) [%] | biological availability (BA) (nano-suspension, average particle diameter 169 nm, dog) [%] | stability in aqueous solution [1]
C#C[C@]1(O)CC[C@H]2[C@@H]3CCC4=Cc5oncc5C[C@]4(C)[C@H]3CC[C@@]21C [danazol, 17-α-pregno-2,4-diene-20-ino-[2,3-d]-isoxazol-17-ol (danazol)] | 5.1 | 82.3 | –
O=C(O)c1cc(O)c2c3nc4ccccc4oc-3cc(=O)c2n1 [pirenoxine] | – | – | hydrolyzed
